The target of data set [1] is Translocator protein (Homo sapiens) (UniProt P30536). Put plainly: Displacement of [3H] PK 11195 from peripheral-type benzodiazepine (unknown origin) at 10 uM incubated for 15 mins by radiometric based scintillation counter assay relative to control. A general note: Displacement assays read how much labelled ligand stays bound in the presence of the test substance.
Data set [2] concerns the target Prostacyclin receptor (Homo sapiens) (UniProt P43119). Nature of the data set: Displacement of [3H]iloprost from human recombinant Prostaglandin I2 receptor at 10 uM incubated for 60 mins by radiometric based scintillation counter assay relative to control.
Data set [3] addresses D(3) dopamine receptor (Homo sapiens) (UniProt P35462). Nature of the data set: Displacement of [3H]methyl-spiperone from human recombinant dopamine D3 receptor at 10 uM incubated for 60 mins by radiometric based scintillation counter assay relative to control.
In data set [4] the target is Sodium-dependent dopamine transporter (Homo sapiens) (UniProt Q01959). Put plainly: Displacement of [3H]BTCP from human recombinant dopamine receptor at 10 uM incubated for 120 mins by radiometric based scintillation counter assay relative to control.
In data set [5] the target is Histamine H1 receptor (Homo sapiens) (UniProt P35367). Put plainly: Displacement of [3H]pyrilamine from human recombinant central-type histamine H1 receptor at 10 uM incubated for 60 mins by radiometric based scintillation counter assay relative to control.
Sequence of Histamine H1 receptor (Homo sapiens) (P35367 whole entry): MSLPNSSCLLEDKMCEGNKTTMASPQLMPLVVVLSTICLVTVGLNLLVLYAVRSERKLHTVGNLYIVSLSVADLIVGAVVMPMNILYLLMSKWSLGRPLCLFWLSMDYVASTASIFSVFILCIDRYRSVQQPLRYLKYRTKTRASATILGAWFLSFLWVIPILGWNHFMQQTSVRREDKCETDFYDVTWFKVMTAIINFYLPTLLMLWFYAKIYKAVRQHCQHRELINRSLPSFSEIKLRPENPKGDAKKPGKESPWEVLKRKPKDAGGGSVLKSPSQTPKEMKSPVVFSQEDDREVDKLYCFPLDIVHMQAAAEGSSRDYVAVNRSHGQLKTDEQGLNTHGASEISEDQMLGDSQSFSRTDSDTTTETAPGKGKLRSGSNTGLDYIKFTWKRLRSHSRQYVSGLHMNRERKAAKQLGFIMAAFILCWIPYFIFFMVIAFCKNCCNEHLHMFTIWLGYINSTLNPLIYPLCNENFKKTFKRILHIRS
Data set [6] deals with Neurotensin receptor type 1 (Homo sapiens) (UniProt P30989). Nature of the data set: Displacement of [125I]Tyr3-neurotensin from human recombinant Neurotensin receptor at 10 uM incubated for 60 mins by radiometric based scintillation counter assay relative to control.
Sequence of Neurotensin receptor type 1 (Homo sapiens) (P30989 whole entry): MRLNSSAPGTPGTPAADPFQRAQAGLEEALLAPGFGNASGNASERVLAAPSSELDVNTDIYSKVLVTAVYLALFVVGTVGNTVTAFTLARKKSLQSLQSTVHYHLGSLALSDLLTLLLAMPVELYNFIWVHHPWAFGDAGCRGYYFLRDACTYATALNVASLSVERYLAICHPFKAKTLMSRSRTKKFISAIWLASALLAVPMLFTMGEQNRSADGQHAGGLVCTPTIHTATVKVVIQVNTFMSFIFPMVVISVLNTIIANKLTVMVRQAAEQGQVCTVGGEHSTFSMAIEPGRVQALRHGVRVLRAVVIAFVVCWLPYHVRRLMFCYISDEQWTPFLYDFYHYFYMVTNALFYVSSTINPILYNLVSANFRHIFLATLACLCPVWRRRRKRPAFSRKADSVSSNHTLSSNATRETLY
Data set [7] addresses Adenosine receptor A3 (Homo sapiens) (UniProt P0DMS8). Put plainly: Displacement of [125I]AB-MECA from human recombinant adenosine A3 receptor at 10 uM incubated for 120 mins by radiometric based scintillation counter assay relative to control.
Data set [8] concerns the target Substance-K receptor (Homo sapiens) (UniProt P21452). Put plainly: Displacement of [125I]NKA from human recombinant Neurokinin A receptor at 10 uM incubated for 60 mins by radiometric based scintillation counter assay relative to control.
Data set [9] concerns the target 5-hydroxytryptamine receptor 6 (Homo sapiens) (UniProt P50406). Nature of the data set: Displacement of [3H]LSD from human recombinant 5-Hydroxytryptamine 6 at 10 uM incubated for 120 mins by radiometric based scintillation counter assay relative to control.
The species entered for data set [10] is Homo sapiens. Put plainly: Inhibition of Thromboxane A2 receptor/prostaglandin H2 receptor (unknown origin) at 10 uM by radioligand binding assay relative to control.
Data set [11] is described as follows: Cmax in cynomolgus monkey at 5 mg/kg, po administered for 12 hrs by HPLC analysis. Format: ADME, organism-based, Macaca fascicularis. Conditions: in vivo.
Data set [12] can be described thus: Half life in cynomolgus monkey at 5 mg/kg, po administered for 12 hrs by HPLC analysis. Format: ADME, organism-based, Macaca fascicularis. Conditions: in vivo.
Data set [13] in a line: Half life in Beagle dog at 5 mg/kg, po administered for 12 hrs by HPLC analysis. The class given is ADME, organism-based, Canis lupus familiaris. Conditions: in vivo.
The target in data set [14] is Mu-type opioid receptor (Homo sapiens) (UniProt P35372). Put plainly: Displacement of [3H]DAMGO from human recombinant mu-Opioid receptor at 10 uM incubated for 120 mins by radiometric based scintillation counter assay relative to control.
Sequence of Mu-type opioid receptor (Homo sapiens) (P35372 whole entry): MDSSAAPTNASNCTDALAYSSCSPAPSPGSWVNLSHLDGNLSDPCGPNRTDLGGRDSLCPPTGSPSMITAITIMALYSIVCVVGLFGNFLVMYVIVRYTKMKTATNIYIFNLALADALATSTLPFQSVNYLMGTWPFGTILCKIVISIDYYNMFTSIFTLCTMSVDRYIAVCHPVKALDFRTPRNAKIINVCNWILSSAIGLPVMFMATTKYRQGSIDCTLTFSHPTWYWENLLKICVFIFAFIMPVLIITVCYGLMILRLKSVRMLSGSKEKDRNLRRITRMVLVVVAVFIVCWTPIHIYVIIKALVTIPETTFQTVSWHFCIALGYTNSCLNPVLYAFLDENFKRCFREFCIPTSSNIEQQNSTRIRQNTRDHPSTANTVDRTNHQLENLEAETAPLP
Data set [15] deals with 5-hydroxytryptamine receptor 7 (Homo sapiens) (UniProt P34969). Nature of the data set: Displacement of [3H]LSD from human recombinant 5-Hydroxytryptamine 7 at 10 uM incubated for 120 mins by radiometric based scintillation counter assay relative to control.
Data set [16] concerns the target T1, Endothelin-1 receptor (Rattus norvegicus) (UniProt P26684).
T1 sequence (whole entry): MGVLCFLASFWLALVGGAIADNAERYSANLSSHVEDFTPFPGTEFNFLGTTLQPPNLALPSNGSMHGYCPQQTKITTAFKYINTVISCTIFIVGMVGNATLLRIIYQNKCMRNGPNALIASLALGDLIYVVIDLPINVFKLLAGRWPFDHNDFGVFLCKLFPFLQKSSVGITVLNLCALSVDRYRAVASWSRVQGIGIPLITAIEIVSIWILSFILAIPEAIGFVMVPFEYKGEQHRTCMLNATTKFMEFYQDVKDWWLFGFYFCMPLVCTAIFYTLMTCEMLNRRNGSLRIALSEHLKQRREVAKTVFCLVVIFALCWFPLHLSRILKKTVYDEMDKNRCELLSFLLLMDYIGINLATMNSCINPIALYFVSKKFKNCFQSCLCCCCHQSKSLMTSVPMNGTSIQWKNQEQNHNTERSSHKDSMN
Put plainly: Antagonist activity to ETA receptor in endothelin-1 stimulated Sprague-Dawley rat aorta assessed as induction of vessel ring contraction upto 10 uM preincubated for 15 mins. Format: functional, tissue-based.

Data set [17] addresses Muscarinic acetylcholine receptor M3 (Homo sapiens) (UniProt P20309). Nature of the data set: Displacement of [3H]4-DAMP from human recombinant muscarinic M3 receptor at 10 uM incubated for 60 mins by radiometric based scintillation counter assay relative to control.
In data set [18] the target is Tumor necrosis factor receptor superfamily member 1A (Homo sapiens) (UniProt P19438). Put plainly: Displacement of [125I]TNF-alpha from human tumor necrosis factor-alpha at 10 uM incubated for 120 mins by radiometric based scintillation counter assay relative to control.
Sequence of Tumor necrosis factor receptor superfamily member 1A (Homo sapiens) (P19438 whole entry): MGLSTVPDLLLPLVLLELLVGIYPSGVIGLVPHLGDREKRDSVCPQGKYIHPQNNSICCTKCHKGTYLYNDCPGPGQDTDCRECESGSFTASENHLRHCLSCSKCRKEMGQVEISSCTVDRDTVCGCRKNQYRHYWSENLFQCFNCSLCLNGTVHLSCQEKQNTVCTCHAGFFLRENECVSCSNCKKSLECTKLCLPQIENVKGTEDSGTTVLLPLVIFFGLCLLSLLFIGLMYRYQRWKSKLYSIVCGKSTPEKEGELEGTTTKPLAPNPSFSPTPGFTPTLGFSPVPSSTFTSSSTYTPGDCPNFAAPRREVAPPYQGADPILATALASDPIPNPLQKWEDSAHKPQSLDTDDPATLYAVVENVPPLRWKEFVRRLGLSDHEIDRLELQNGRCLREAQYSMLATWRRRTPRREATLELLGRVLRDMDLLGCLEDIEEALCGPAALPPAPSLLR
In data set [19] the target is T1, Endothelin-1 receptor (Rattus norvegicus). Nature of the data set: In vivo antagonist activity to ETA receptor in endothelin-1 induced Sprague-Dawley rat assessed as reduction of vasopressor response at 30 mg/kg, po administered for 24 hrs. Format: functional, organism-based.
Data set [20] deals with T2, Endothelin-1 receptor (Homo sapiens, UniProt P25101).
T2 sequence (P25101 whole entry): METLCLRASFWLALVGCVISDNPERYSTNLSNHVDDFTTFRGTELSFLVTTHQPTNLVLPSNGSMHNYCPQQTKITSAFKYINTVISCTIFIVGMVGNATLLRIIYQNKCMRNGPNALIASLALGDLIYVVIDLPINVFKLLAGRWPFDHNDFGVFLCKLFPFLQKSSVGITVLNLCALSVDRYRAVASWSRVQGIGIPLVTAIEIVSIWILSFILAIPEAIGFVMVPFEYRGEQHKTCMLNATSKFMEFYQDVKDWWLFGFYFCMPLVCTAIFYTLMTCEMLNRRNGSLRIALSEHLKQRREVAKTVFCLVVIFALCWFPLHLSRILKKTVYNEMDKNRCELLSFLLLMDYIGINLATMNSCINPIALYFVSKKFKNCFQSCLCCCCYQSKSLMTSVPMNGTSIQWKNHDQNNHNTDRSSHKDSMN
Nature of the data set: Displacement of [125I]endhothelin-1 from human ETA receptor stably expressed in CHO cells Membrane at 25 degC incubated for 3 hrs by radioligand competition binding assay. Format: cell membranes.

Data set [21] has as its target Sodium-dependent noradrenaline transporter (Homo sapiens) (UniProt P23975). Nature of the data set: Inhibition of human norepinephrine expressed in CHO cells at 10 uM incubated for 180 mins by radiometric based scintillation counter assay relative to control. The class given is cell-based.
Data set [22] can be described thus: Volume of distribution at steady state during terminal phase in Sprague-Dawley rat at 5 mg/kg, iv administered for 12 hrs by reverse phase HPLC-UV analysis. The class given is ADME, organism-based. Conditions: in vivo, read-out: Vbeta.
The target in data set [23] is Endothelin receptor type B (Oryctolagus cuniculus, UniProt Q9N0W7). Put plainly: Antagonist activity to ETB receptor in sarafotoxin-6c stimulated rabbit pulmonary artery assessed as induction of vessel ring contraction preincubated for 15 mins. Conditions: read-out: pA2 (converted). Format: functional, tissue-based.
Sequence of Endothelin receptor type B (Q9N0W7 whole entry): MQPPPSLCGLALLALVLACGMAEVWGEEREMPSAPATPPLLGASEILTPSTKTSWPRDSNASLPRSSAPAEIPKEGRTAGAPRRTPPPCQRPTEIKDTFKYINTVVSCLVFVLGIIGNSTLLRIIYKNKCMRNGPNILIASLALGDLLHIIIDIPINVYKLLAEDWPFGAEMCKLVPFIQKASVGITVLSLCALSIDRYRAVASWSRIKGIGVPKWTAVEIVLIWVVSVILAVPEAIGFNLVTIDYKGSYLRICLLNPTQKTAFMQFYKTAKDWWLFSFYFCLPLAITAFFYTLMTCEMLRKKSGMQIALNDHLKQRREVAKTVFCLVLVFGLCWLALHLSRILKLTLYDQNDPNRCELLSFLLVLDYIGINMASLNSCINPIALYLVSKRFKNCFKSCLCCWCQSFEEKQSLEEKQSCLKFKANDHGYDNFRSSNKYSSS
Data set [24] concerns the target Interleukin-1 beta (Homo sapiens) (UniProt P01584). Put plainly: Inhibition of Interleukin-1beta (unknown origin) at 10 uM by radioligand binding assay relative to control.

The source made the active and inactive calls. The calls are words filed in the database; no cut-off is given here. Some results are limits rather than exact numbers.

Sequence of Adenosine receptor A3 (Homo sapiens) (P0DMS8 whole entry): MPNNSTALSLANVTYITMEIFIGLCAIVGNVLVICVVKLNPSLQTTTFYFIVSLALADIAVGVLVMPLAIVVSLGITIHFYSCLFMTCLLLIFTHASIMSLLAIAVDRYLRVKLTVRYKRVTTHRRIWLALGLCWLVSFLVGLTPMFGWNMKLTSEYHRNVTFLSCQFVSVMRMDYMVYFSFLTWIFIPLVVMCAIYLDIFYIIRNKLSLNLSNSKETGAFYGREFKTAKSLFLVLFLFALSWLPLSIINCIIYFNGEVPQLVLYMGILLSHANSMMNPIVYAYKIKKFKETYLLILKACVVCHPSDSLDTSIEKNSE
Sequence of 5-hydroxytryptamine receptor 6 (Homo sapiens) (P50406 whole entry): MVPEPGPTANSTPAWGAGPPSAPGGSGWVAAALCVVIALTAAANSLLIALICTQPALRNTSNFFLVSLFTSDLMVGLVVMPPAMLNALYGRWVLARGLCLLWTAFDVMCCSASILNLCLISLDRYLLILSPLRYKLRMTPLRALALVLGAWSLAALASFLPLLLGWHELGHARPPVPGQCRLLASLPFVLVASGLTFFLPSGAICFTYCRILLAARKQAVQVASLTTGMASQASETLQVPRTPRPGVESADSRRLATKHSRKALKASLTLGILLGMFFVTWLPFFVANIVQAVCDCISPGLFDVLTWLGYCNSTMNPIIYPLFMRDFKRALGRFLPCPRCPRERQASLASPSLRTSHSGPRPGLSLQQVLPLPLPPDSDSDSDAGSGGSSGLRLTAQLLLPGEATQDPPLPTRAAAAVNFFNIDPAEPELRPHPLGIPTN
Sequence of Muscarinic acetylcholine receptor M3 (Homo sapiens) (P20309 whole entry, looked up): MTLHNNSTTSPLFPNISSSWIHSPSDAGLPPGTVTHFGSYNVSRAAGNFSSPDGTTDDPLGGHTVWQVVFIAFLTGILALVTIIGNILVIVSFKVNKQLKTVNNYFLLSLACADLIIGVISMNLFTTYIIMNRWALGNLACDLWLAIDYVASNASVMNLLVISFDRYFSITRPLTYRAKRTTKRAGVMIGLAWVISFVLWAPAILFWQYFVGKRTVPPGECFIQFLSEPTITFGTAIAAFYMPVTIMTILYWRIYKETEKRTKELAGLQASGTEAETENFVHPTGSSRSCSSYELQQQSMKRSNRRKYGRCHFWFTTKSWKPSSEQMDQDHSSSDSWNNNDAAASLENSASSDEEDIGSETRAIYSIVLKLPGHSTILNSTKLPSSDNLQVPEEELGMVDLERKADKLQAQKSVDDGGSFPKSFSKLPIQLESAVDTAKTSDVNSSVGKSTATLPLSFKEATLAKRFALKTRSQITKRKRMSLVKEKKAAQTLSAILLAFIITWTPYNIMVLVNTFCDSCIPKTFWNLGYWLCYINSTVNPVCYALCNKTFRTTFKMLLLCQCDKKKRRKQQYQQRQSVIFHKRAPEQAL
Sequence of Translocator protein (Homo sapiens) (P30536 whole entry): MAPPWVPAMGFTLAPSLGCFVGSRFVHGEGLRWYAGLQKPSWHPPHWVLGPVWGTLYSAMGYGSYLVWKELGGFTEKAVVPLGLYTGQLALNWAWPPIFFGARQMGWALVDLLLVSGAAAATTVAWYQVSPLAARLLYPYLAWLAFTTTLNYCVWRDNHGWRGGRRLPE
Sequence of Sodium-dependent noradrenaline transporter (Homo sapiens) (P23975 whole entry): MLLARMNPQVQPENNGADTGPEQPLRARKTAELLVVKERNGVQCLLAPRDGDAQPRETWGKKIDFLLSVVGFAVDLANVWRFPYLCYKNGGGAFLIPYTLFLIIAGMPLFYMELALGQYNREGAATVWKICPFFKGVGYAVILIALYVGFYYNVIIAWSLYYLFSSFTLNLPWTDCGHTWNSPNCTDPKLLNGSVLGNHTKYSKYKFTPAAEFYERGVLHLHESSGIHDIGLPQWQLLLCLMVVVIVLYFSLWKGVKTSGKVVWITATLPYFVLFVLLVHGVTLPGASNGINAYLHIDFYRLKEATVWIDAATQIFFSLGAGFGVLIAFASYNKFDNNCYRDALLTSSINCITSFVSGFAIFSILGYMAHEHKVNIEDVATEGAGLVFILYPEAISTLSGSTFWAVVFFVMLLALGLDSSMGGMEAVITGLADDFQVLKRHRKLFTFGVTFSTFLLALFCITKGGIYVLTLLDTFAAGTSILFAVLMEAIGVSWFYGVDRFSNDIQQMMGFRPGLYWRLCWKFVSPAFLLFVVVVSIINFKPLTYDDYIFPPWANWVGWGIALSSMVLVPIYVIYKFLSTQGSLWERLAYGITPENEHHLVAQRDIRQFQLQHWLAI
Sequence of D(3) dopamine receptor (Homo sapiens) (P35462 whole entry): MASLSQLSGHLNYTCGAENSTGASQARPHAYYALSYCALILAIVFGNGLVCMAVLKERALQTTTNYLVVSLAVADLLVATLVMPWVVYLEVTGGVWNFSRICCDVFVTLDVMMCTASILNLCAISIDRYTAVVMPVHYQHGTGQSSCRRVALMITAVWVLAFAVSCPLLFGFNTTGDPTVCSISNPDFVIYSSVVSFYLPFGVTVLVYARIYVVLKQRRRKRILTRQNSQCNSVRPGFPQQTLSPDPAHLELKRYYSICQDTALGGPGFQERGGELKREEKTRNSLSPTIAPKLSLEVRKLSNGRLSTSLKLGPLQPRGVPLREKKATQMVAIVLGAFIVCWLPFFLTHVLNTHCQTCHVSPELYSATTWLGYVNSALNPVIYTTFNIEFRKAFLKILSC
Sequence of Interleukin-1 beta (Homo sapiens) (P01584 117-269 limits assumed): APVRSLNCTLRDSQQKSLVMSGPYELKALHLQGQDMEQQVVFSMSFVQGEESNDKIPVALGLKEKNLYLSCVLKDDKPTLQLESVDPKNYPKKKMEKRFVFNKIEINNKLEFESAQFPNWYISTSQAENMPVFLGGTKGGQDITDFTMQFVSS

By inhibition is commonly meant the share of the control response that was lost under treatment. One may read the Cmax as the highest concentration seen after dosing. The term half-life denotes the time in which the quantity being followed falls by half. The term IC50 denotes the concentration needed to halve the response being measured. Take `CCCCN(CCCC)C(=O)CN1[C@H](c2cc(OC)c3c(c2)OCO3)C[C@@H](C(=O)O)[C@@H]1CC(C)(C)CCC`: the inhibition is less than 10% in [1]; 15% in [2]; less than 10% in [3]; less than 10% in data set [4]; less than 10% in [5]; less than 10% in data set [6]. For the same compound, the inhibition is 32% in data set [7]; less than 10% in [8]; less than 10% in [9]; 16% in data set [10]; 17% in data set [14]; less than 10% in [15]. Besides, the inhibition in data set [17], in data set [18], in data set [21] and in data set [24] was less than 10% each time. In data set [11], this compound yielded a peak concentration (Cmax) of 1100 ng/mL. Further, the figures for the half-life in data set [12] and in [13] were 1 h and 3.3 h, respectively. Moreover, the result in data set [16] and in data set [19] was inactive. The compound also showed an IC50 in data set [20] of 0.00049 µM. The Vd in data set [22] was found to be 3.7 L/kg. Further, the Kb in data set [23] is 26.9 µM.

The values are drawn from ChEMBL document CHEMBL5678795 (Eur J Pharmacol, 1999).
